From PubChem BioAssay AID1902 (Broad Institute, 2009)
Activity calls are given as the source filed them.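 The calls were made as follows: active = EC50 no more than a set limit of log units above the highest dose; inactive = the rest.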

Biological target: S. pyogenes SKKanGAS, kanamycin survival, BacTiterGlo, 6 h
Assay: S. pyogenes SKKanGAS kanamycin growth inhibitors – SKKanGAS strain, luminescence, dose confirmation, streptokinase promoter inhibitor project, dose response (AID 1902);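 also: lower survival reflects blocked streptokinase promoter driving kanamycin resistance gene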

Row | Structure (SMILES) | EC50
1 | COc1ccc(-n2nc3cc(C)c(NC(=O)C(C)C)cc3n2)cc1 | > 15 µM (inactive)
2 | CC1=CC(C)(C)n2c(O)c(N=N)c3c(C)c(C)cc1c32 | 5.67 µM
3 | Cc1ccc2nc(/N=C(\N)NC(=O)NC3CCCCC3)nc(C)c2c1 | 1.15 µM
4 | O=C(Nc1cccc(NC(=O)c2ccccc2Cl)c1)c1ccc([N+](=O)[O-])o1 | 4.81 µM
5 | CCOC(=O)c1cnc(-n2nc(C)cc2C)nc1NC(C)c1ccccc1 (configuration not stated) | 2.74 µM
6 | Cc1ccc(C)c2sc(N3CCN(C(=O)c4ccc([N+](=O)[O-])o4)CC3)nc12 | 5.58 µM
7 | CN(C(=O)CSc1nc(-c2ccc(C(C)(C)C)cc2)c(C#N)c(=O)[nH]1)C1CCCCC1 | 1.36 µM
8 | Cc1ccccc1/C=C1\Sc2ccc(C(=O)N3CCN(c4ccccn4)CC3)cc2N(C)C1=O | 6.47 µM
9 | Cn1c(Sc2ccccc2Cl)c(C=O)c2ccccc21 | 5.92 µM
10 | Cc1cccc(/C=C/C(=O)c2ccc([N+](=O)[O-])o2)c1 | 4.81 µM
11 | CC(=O)OCC1=C(C(=O)O)N2C(=O)C(NC(=O)CCn3nc(C)c(Cl)c3C)C2SC1 (configuration not stated) | 1.02 µM
12 | COc1ccc(Cl)cc1C(=O)NNC(=S)NC(=O)c1cc(-c2ccc(Cl)cc2)nc2ccccc12 | 0.254 µM
13 | N=C1/C(=C/c2cccs2)C(=O)N=C2SN=C(SCc3ccccc3)N12 | 1.83 µM
14 | CC(=O)Nc1nnc(S(=O)(=O)N2CCN(c3ccc(Cl)cc3[N+](=O)[O-])CC2)s1 | > 15 µM (inactive)
15 | Nc1nc(NCCOCCO)nc(N2CCCCCC2)c1[N+](=O)[O-] | 5.78 µM
16 | CC(C)N1CCc2c(sc(NC(=O)c3ccc(S(=O)(=O)N(C)CC4CCCO4)cc3)c2C(N)=O)C1 (configuration not stated) | > 15 µM (inactive)
17 | CCCC(Oc1ccc(Br)cc1)c1nc2c3cc(OC)c(OC)cc3nc(=S)n2[nH]1 (configuration not stated) | 0.145 µM
18 | O=c1c2c([N+](=O)[O-])cc([N+](=O)[O-])cc2sn1Cc1ccccc1 | 6.62 µM
19 | Cc1ccc(NC(=S)c2nc3ccccc3[nH]2)c(C)c1 | 1.74 µM
20 | O=C(Nc1ccccc1Cc1ccccc1)c1ccccc1NS(=O)(=O)c1ccc(Cl)s1 | 0.59 µM
21 | Cc1ccc(S(=O)(=O)N2CCCCC2)cc1NC(=O)CN1C(=O)CN(C)C1=O | > 15 µM (inactive)
22 | CCCCCCCn1c(NC(=O)CC)nc2ccccc21 | 0.342 µM
23 | CCOc1ccc(N=Nc2ccc(O)c3ncccc23)cc1 | 0.186 µM
24 | COc1ccc(OCCCC(=O)Nc2nc(-c3ccccn3)cs2)cc1 | 0.309 µM
25 | [O-][n+]1cccc2c(Br)cc(Br)c(O)c21 | 0.55 µM
26 | CCN1CCN(C(CNS(=O)(=O)c2ccc(C)cc2)c2cccnc2)CC1 (configuration not stated) | > 15 µM (inactive)

Row | Structure (SMILES) | EC50
27 | Cc1sc2ncnc(N3CCC(C(=O)Nc4ccc(Cl)cc4Cl)CC3)c2c1C | 11.2 µM
28 | COc1cc(OC)cc(C(=O)Nc2nc(CC(=O)NCc3ccccc3OC)cs2)c1 | 12.4 µM
29 | CN(C)c1ccc(/C=C/c2ccc3ccccc3[n+]2C)cc1 | 7.2 µM
30 | COc1ccc(NC(=O)c2cccc(-c3ccc(O)cc3)c2)cn1 | 13 µM
31 | Cc1ccc(Cn2cc(/C=N/NC(=O)Cc3nnc(NC(=O)c4ccc(C)cc4)s3)c3ccccc32)cc1 | 4.24 µM
32 | NS(=O)(=O)c1ccc(N2N=C(c3ccccc3)CC2c2ccc(F)cc2)cc1 (configuration not stated) | 5.28 µM
33 | N=C1S/C(=C\c2cn[nH]c2-c2ccc(F)cc2)C(=O)N1c1ccccc1F | 3.65 µM
34 | CCOc1ccc(NC(=O)CN(C)C(=O)C2CC(=O)N(c3ccc4c(c3)OCCO4)C2)cc1OCC (configuration not stated) | > 15 µM (inactive)
35 | CC(C)Cc1nnc(NC(=O)CCC(=O)N2CCN(c3ccccc3)CC2)s1 | > 15 µM (inactive)
36 | CCCc1ccc(Oc2cn[nH]c2-c2ccc(O)c(C)c2O)cc1 | 1.8 µM
37 | O=c1cc(N2CCCCC2)c(-c2ccccc2)nn1Cc1c(Cl)cccc1Cl | 4.69 µM
38 | Cc1ccccc1C(=O)NNC(=S)NC(=O)c1cccs1 | 2.31 µM
39 | O=[N+]([O-])c1ccc(N2N=C(c3ccccc3)CC2c2ccccc2O)cc1 (configuration not stated) | 2.25 µM
40 | COc1ccc(-c2cn[nH]c2-c2ccc(OC)cc2)cc1 | 6.64 µM
41 | Cc1ccc(-c2cc3nc(-c4ccc(Br)cc4)cc(N)n3n2)cc1 | 0.561 µM
42 | CCC(=O)Oc1ccc(-c2nc(-c3cccnc3)no2)cc1 | 4.3 µM
43 | Cc1cc(N2CCC(C)CC2)nc(-n2nc(C)cc2C)n1 | 7.73 µM
44 | Cc1onc(-c2c(Cl)cccc2Cl)c1C(=O)NC1C(=O)N2C1SC(C)(C)C2C(=O)O (configuration not stated) | < 0.06 µM
45 | Cc1cc(C)c(-c2noc(C(=O)OC(C)(C)C)c2C(=O)OC(C)(C)C)c(C)c1 | 3.58 µM
46 | O=C(c1ccc(Cl)cc1)c1cnc(Nc2ccccc2Cl)s1 | 6.77 µM
47 | CC1CCc2c(sc3nc(C4CC4)nc(N4CCN(C(=O)c5ccco5)CC4)c23)C1 (configuration not stated) | 3.84 µM
48 | O=c1c2c(n3nnnc3n1Cc1ccccc1)-c1ccccc1CC21CCCC1 | 1.67 µM
49 | Cc1ccc(/C=C/C(=O)C2C(=O)c3ccccc3C2=O)cc1 | 1.62 µM
50 | COc1cc(O)c(CC=C(C)C)c(O)c1C(=O)CCc1ccc(O)cc1 | 2.76 µM
51 | Cc1ccc(OCCSc2nc(NC(C)C)nc(NC(C)C)n2)cc1 | 4.4 µM
52 | Cc1cc(C)cc(NS(=O)(=O)c2ccc(NC(=S)NC(=O)c3cccs3)cc2)c1 | 6.32 µM
